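Cells were grown in 96-well plates and exposed to each compound for 48 hours at five concentrations; endpoints were interpolated linearly between bracketing concentrations, or set to the highest concentration if not reached. GI50 is the concentration that inhibits growth by half.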 The source made the active and inactive calls. No stated cut-off is given here; in the data, active = GI50 up to about 1.1 µM and inactive = higher.
What was measured:
Assay in all cases: growth of human tumour cells (NCI), 48 h
786-0 = test system: 786-0
A549 = test system: A549
ACHN = test system: ACHN
KM12 = test system: KM12
Malme-3M = test system: Malme-3M
NCI-H522 = test system: NCI-H522
OVCAR-5 = test system: OVCAR-5
SNB-75 = test system: SNB-75
TK-10 = test system: TK-10
CCRF-CEM = test system: CCRF-CEM
HCT-15 = test system: HCT-15
HOP-92 = test system: HOP-92
MOLT-4 = test system: MOLT-4
OVCAR-3 = test system: OVCAR-3
SNB-19 = test system: SNB-19
SR = test system: SR
UACC-62 = test system: UACC-62

Compound | GI50 (786-0) | GI50 (A549) | GI50 (ACHN) | GI50 (KM12) | GI50 (Malme-3M) | GI50 (NCI-H522) | GI50 (OVCAR-5) | GI50 (SNB-75) | GI50 (TK-10) | GI50 (CCRF-CEM) | GI50 (HCT-15) | GI50 (HOP-92) | GI50 (MOLT-4) | GI50 (OVCAR-3) | GI50 (SNB-19) | GI50 (SR) | GI50 (UACC-62)
CC1=C(O)/C(=C/C(C)CCC/C(C)=C/C=C/C(C)CCCc2ccoc2)OC1=O (stereo not given) | 25.5 µM (inactive) | 27.2 µM (inactive) | 19.2 µM (inactive) | 34.4 µM (inactive) | 10.1 µM (inactive) | 37.2 µM (inactive) | 23.8 µM (inactive) | 25.2 µM (inactive) | 20.9 µM (inactive) |  |  |  |  |  |  |  | 
Cc1ccc(/N=N/c2c(-c3ccccc3)nn(C(=O)CC(=O)Nc3ccc(Cl)cc3)c2-c2ccccc2)cc1 | 36.5 µM (inactive) | 78.9 µM (inactive) | 79.6 µM (inactive) | 38.3 µM (inactive) | 83.6 µM (inactive) | 37.8 µM (inactive) | 48.6 µM (inactive) | 20.6 µM (inactive) |  | 18.6 µM (inactive) | 56.4 µM | 23.9 µM (inactive) | 21.3 µM (inactive) | 26.2 µM (inactive) | 49.7 µM (inactive) | 12.3 µM (inactive) | 70.5 µM (inactive)
O=C(c1ccccc1)c1cn(/N=C\c2ccccc2)c(=O)nc1-c1ccccc1 | > 100 µM (inactive) | > 100 µM (inactive) | > 100 µM (inactive) | > 100 µM (inactive) | > 100 µM (inactive) | > 100 µM (inactive) | > 100 µM (inactive) | > 100 µM (inactive) | > 100 µM (inactive) | 70 µM (inactive) | > 100 µM | 92.9 µM (inactive) | > 100 µM (inactive) | > 100 µM (inactive) | > 100 µM (inactive) |  | > 100 µM (inactive)
CC1c2[nH]c3ccccc3c2CCN1O (stereo not given) | > 100 µM (inactive) | > 100 µM (inactive) | > 100 µM (inactive) | > 100 µM (inactive) | > 100 µM (inactive) | > 100 µM (inactive) | > 100 µM (inactive) | 68.5 µM (inactive) | > 100 µM (inactive) | > 100 µM (inactive) | > 100 µM | > 100 µM (inactive) | > 100 µM (inactive) | > 100 µM (inactive) | > 100 µM (inactive) |  | > 100 µM (inactive)
CSc1nc(NC2OCC(OC(C)=O)C(OC(C)=O)C2OC(C)=O)c2c(n1)OCC2=O (stereo not given) | > 100 µM (inactive) | > 100 µM (inactive) | > 100 µM (inactive) | > 100 µM (inactive) | > 100 µM (inactive) | > 100 µM (inactive) | > 100 µM (inactive) | > 100 µM (inactive) | > 100 µM (inactive) | > 100 µM (inactive) | > 100 µM |  | > 100 µM (inactive) | > 100 µM (inactive) | > 100 µM (inactive) |  | > 100 µM (inactive)
CC1(C)CC2(S(=O)(=O)c3ccccc3)ON1CC2S(=O)(=O)c1ccccc1 (stereo not given) | > 100 µM (inactive) | > 100 µM (inactive) | > 100 µM (inactive) | > 100 µM (inactive) | > 100 µM (inactive) | 29.4 µM (inactive) | > 100 µM (inactive) | > 100 µM (inactive) | > 100 µM (inactive) | 26.8 µM (inactive) | > 100 µM |  | 30.8 µM (inactive) | > 100 µM (inactive) | > 100 µM (inactive) | 39.4 µM (inactive) | 91.2 µM (inactive)
CCCCCCCCCCCCCCC(C)CCC(=O)O (stereo not given) | 80.9 µM (inactive) | > 100 µM (inactive) | > 100 µM (inactive) | 49.8 µM (inactive) | > 100 µM (inactive) |  | > 100 µM (inactive) | > 100 µM (inactive) | > 100 µM (inactive) |  |  | 62.5 µM (inactive) |  | 68.7 µM (inactive) | > 100 µM (inactive) |  | 78.9 µM (inactive)

— ChEMBL document CHEMBL1201862, “PubChem BioAssay data set” (2004)
